Earlier results in patent US20090030075A1, “Remedy for and Method of Treating Ischemic Cerebral Stroke” (priority 2005, published 2009).

System: cerebral infarction lesion
Details: FR139317 used together with SUN9216

CC(C)C[C@H](NC(=O)N1CCCCCC1)C(=O)N[C@H](Cc1cn(C)c2ccccc12)C(=O)N[C@H](Cc1ccccn1)C(=O)O [FR139317]
activity of inhibiting development of a cerebral infarction lesion: this effect disappears
